What all share (type): cell-based
The test system of series [1] is Human Lung Normal Cells (MRC-5). Kind of series: Cytotoxicity assay for human lung normal cells, trypan blue. The note with it: 3 days. The protocol: (§1) Each human normal cells are preliminarily seeded in 35 mm petri dishes containing Dulbecco's modified Eagle medium (DMEM) containing 20% of fetal bovine serum (FBS) in a concentration of 1×10^5/ml. The resulting cells are incubated at 36° C. for 1 day under 5% CO2, and cells are confirmed to be stuck at the bottom of the petri dishes. A racemate, α-isomer and β-isomer are each dissolved in DMSO to give solutions in concentrations of 0.5 mM, 0.05 mM, 0.005 mM and 0.0005 mM, 2 μL each of which are added to each cells. The resulting cells are incubated at 36° C. for 3 days, and viable cells are counted by using 0.25% trypan blue and viabilities are calculated. A commercially-available anticancer agent mitomycin is also examined as a control in the test against human skin normal cells, and the results are also shown in TABLE 6.

The next series has as its system PC-3 cells. Kind of series: Antitumor activity against PC-3 cells (2), viable cell count. Particulars: Homo sapiens. The protocol: (§2) PC-3 cells (manufactured by Department of Laboratory Products of Dainippon Pharm. Co. Ltd.) are preliminarily seeded in 35 mm petri dishes containing Dulbecco's modified Eagle medium (DMEM) containing 20% of fetal bovine serum (FBS) in a concentration of 1×10^5/ml. The resulting cells are incubated at 36° C. for 1 day under 5% CO2, and cells are confirmed to be stuck at the bottom of the petri dishes. The resulting PC-3 cells are divided into […], to the first group of which is added (±)-2-(1-hydroxyethyl)-5-hydroxynaphtho[2,3-b]furan-4,9-dione (racemate) in concentrations of 0.5 mM, 0.05 mM and 0.005 mM, and to the second group of which is added adriamycin (Wakenyaku Co. Ltd.) as a control in concentrations of 0.5 mM, 0.05 mM and 0.005 mM. These groups are incubated at 36° C. for 3 days, and viable cells are counted and viability is calculated.
(§3) PC-3 cells obtained in a similar manner in the above (1) are divided into three groups, to the first group of which is added (±)-2-(1-hydroxyethyl)-5-hydroxynaphtho[2,3-b]furan-4,9-dione (racemate) in concentrations of 0.5 mM, 0.05 mM, 0.005 mM and 0.0005 mM, to the second group of which is added an unnatural type 2-(1-hydroxyethyl)-5-hydroxynaphtho[2,3-b]furan-4,9-dione (α-isomer) in concentrations of 0.5 mM, 0.05 mM, 0.005 mM and 0.0005 mM, to the third group of which is added a natural type 2-(1-hydroxyethyl)-5-hydroxynaphtho[2,3-b]furan-4,9-dione (β-isomer) in concentrations of 0.5 mM, 0.05 mM, 0.005 mM and 0.0005 mM, and to the fourth group of which is added mitomycin as a control in concentrations of 0.5 mM, 0.05 mM, 0.005 mM and 0.0005 mM. These groups are incubated at 36° C. for 3 days, and viable cells are counted and viability is calculated.

Series [2] has as its system Human Hepatic Normal Cells (Cell Systems Hc Cells). Kind of series: Cytotoxicity assay for human hepatic normal cells, trypan blue. The note with it: 3 days. As to the method: as §1
For series [3], the system named is Human Intestinal Normal Cells (Cell Systems IE Cells). Kind of series: Cytotoxicity assay for human intestinal normal cells, trypan blue. The note with it: 3 days. As to the method: as §1
In series [4] the test system is A-549 cells (Lung cancer cells). Kind of series: Antitumor activity against A-549 cells, viable cell count. Particulars: Homo sapiens, A549, 72 h. As to the method: as §3
Antitumor activity is examined on A-549 cells in a similar manner as in the above (2).

For series [5], the system named is MCF-7 cells (Breast cancer cells). Kind of series: Antitumor activity against MCF-7 cells, viable cell count. The note with it: Homo sapiens, MCF7, 72 h. As to the method:
as §3
Antitumor activity is examined on MCF-7 cells in a similar manner as in the above (2).

Series [6] deals with Human Skin Normal Cells (Cell System Fb cells). Kind of series: Cytotoxicity assay for human skin normal cells, trypan blue. Particulars: for Viability %: human skin normal cells, 3 days. As to the method: as §1
Series [7] relates to PC-3 cells (Prostate cancer cells). Kind of series: Antitumor activity against PC-3 cells (1), viable cell count. The note with it: Homo sapiens, PC-3, 72 h. As to the method:
as §2

Five compounds from patent US7910752B2, “Anticancer compound, intermediate therefor, and processes for producing these” (Taheebo Japan Co., Ltd., priority 2005, dated 2011) can be followed below.

A word on the viability: it is the share of living cells, or the viability signal relative to a control.

The structures appear in SMILES notation. Like-named read-outs stand apart in the source and are kept apart here.

For `CC(O)c1cc2c(o1)C(=O)c1cccc(O)c1C2=O` (single isomer, unassigned; isomer 2) [α-Isomer, 2-(1-hydroxyethyl)-5-hydroxynaphtho[2,3-b]furan-4,9-dione], the Viability % in series [1] (0.0005 mM) was determined as 100%; in series [1] (0.005 mM), 80%; in series [1] (0.05 mM), 50%; in series [1] (0.5 mM), 30%; in series [2] (0.0005 mM) it was 100%; in series [2] (0.005 mM) it was 70%. The Viability % in series [2] (0.05 mM) was found to be 40%; in series [2] (0.5 mM), 20%; in series [3] (0.0005 mM), 100%; in series [3] (0.005 mM), 80%; in series [3] (0.05 mM) it was 60%; in series [3] (0.5 mM) it was 40%. Further, the Viability % in series [6] (0.0005 mM) is recorded as 100%; in series [6] (0.005 mM), 70%; in series [6] (0.05 mM) it was 40%; in series [6] (0.5 mM), 30%. Moreover, the viability at 0.5 µM in the series on PC-3 cells (PC-3, 72 h) came to 60%; in series [4], 70%; in series [5], 90%. Moreover, the viability at 5 µM was found to be 30% in the series with PC-3 cells (PC-3, 72 h); 40% in series [4]; 60% in series [5]. Also, the viability at 50 µM with PC-3 cells (PC-3, 72 h) came to 0%; in series [4], 10%; in series [5], 30%. In addition, the viability at 500 µM in the series on PC-3 cells (PC-3, 72 h) came out at 0%; in series [4], 0%; in series [5], 0%.
As for `CO[C@@]12[C@H](COC(N)=O)C3=C(C(=O)C(C)=C(N)C3=O)N1C[C@@H]1N[C@@H]12` [Mitomycin, mitomycin, reference compound], the viability at 0.5 µM with PC-3 cells (72 h, PC-3 cells, 0.0005 mM, 3 days, read-out: Viability %) is 40%; in series [4] (A-549 cells, 0.0005 mM, 3 days, read-out: Viability %), 50%; in series [5] (MCF-7 cells, 0.0005 mM, 3 days, read-out: Viability %), 60%. In addition, the viability at 5 µM in the series with PC-3 cells (72 h, PC-3 cells, 0.005 mM, 3 days, read-out: Viability %) was found to be 10%; in series [4] (A-549 cells, 0.005 mM, 3 days, read-out: Viability %), 10%; in series [5] (MCF-7 cells, 0.005 mM, 3 days, read-out: Viability %), 30%. Besides, the viability at 50 µM with PC-3 cells (72 h, PC-3 cells, 0.05 mM, 3 days, read-out: Viability %) stood at 0%; in series [4] (A-549 cells, 0.05 mM, 3 days, read-out: Viability %), 0%; in series [5] (MCF-7 cells, 0.05 mM, 3 days, read-out: Viability %) it was 10%. Further, the viability at 500 µM is 0% with PC-3 cells (72 h, PC-3 cells, 0.5 mM, 3 days, read-out: Viability %); 0% in series [4] (A-549 cells, 0.5 mM, 3 days, read-out: Viability %); 0% in series [5] (MCF-7 cells, 0.5 mM, 3 days, read-out: Viability %). Further, the Viability % was 60% in series [6] (0.0005 mM), 30% in series [6] (0.005 mM), 0% in series [6] (0.05 mM) and 0% in series [6] (0.5 mM). Besides, the “toxicity to normal cells” value in series [6] (summary in words of TABLE 6) was “very strong toxicity”.
For the compound `COc1cccc2c1C(=O)c1c(O)c3c(c(O)c1C2=O)C[C@@](O)(C(=O)CO)C[C@@H]3O[C@H]1C[C@H](N)[C@H](O)[C@H](C)O1` [Adriamycin, adriamycin, reference compound], in series [7], the viability at 5 µM turned out to be 42%, the viability at 50 µM came to 0% and the viability at 500 µM amounted to 0%.
As for `CC(O)c1cc2c(o1)C(=O)c1cccc(O)c1C2=O` (single isomer, unassigned; isomer 2) [β-Isomer, 2-(1-hydroxyethyl)-5-hydroxynaphtho[2,3-b]furan-4,9-dione], the Viability % in series [1] (0.0005 mM) came to 100%; in series [1] (0.005 mM), 70%; in series [1] (0.05 mM), 40%; in series [1] (0.5 mM), 20%; in series [2] (0.0005 mM), 100%; in series [2] (0.005 mM), 50%. Moreover, the Viability % in series [2] (0.05 mM) came out at 20%; in series [2] (0.5 mM) it was 10%; in series [3] (0.0005 mM), 100%; in series [3] (0.005 mM) it was 70%; in series [3] (0.05 mM), 50%; in series [3] (0.5 mM) it was 30%. In addition, the Viability % was 100% in series [6] (0.0005 mM), 50% in series [6] (0.005 mM), 20% in series [6] (0.05 mM) and 10% in series [6] (0.5 mM). Moreover, the viability at 0.5 µM in the series on PC-3 cells (PC-3, 72 h) was 40%; in series [4], 60%; in series [5], 70%. For the same compound, the viability at 5 µM was 10% with PC-3 cells (PC-3, 72 h); 30% in series [4]; 50% in series [5]. The viability at 50 µM worked out at 0% with PC-3 cells (PC-3, 72 h); 10% in series [4]; 20% in series [5]. The viability at 500 µM stood at 0% in the series on PC-3 cells (PC-3, 72 h); 0% in series [4]; 0% in series [5].
For the compound `CC(O)c1cc2c(o1)C(=O)c1cccc(O)c1C2=O` (racemic) [Racemate, (±)-2-(1-hydroxyethyl)-5-hydroxynaphtho[2,3-b]furan-4,9-dione], the Viability % in series [1] (0.0005 mM) came to 100%; in series [1] (0.005 mM) it was 80%; in series [1] (0.05 mM) it was 60%; in series [1] (0.5 mM) it was 30%; in series [2] (0.0005 mM), 100%; in series [2] (0.005 mM), 80%. The Viability % in series [2] (0.05 mM) is recorded as 60%; in series [2] (0.5 mM), 30%; in series [3] (0.0005 mM), 100%; in series [3] (0.005 mM), 80%; in series [3] (0.05 mM), 60%; in series [3] (0.5 mM), 40%. Besides, the Viability % came to 100% in series [6] (0.0005 mM), 80% in series [6] (0.005 mM), 50% in series [6] (0.05 mM) and 20% in series [6] (0.5 mM). For the same compound, the viability at 0.5 µM in the series on PC-3 cells (PC-3, 72 h) came out at 50%; in series [4], 70%; in series [5] it was 90%. Besides, the viability at 5 µM in the series on PC-3 cells (PC-3, 72 h) worked out at 30%; in series [4], 50%; in series [5], 50%; in series [7] it was 50%. The viability at 50 µM with PC-3 cells (PC-3, 72 h) was 0%; in series [4], 10%; in series [5] it was 20%; in series [7], 0%. The viability at 500 µM in the series on PC-3 cells (PC-3, 72 h) came out at 0%; in series [4] it was 0%; in series [5], 0%; in series [7] it was 0%.
